One compound from patent US20190174812A1, “SOLID ORAL NICOTINE FORMULATION” (Fertin Pharma A/S, priority 2017, published 2019) can be followed below.

The conditions of the series: nicotine concentration raised from 100 microgram/mL to 14,000 microgram/mL.

With `CN1CCCC1c1cccnc1` (stereo not shown) [nicotine], the “Decrease of permeability of nicotine across the buccal mucosa (factor)” value is given as “two”.
